Reference: patent US20260193271A1, “PAN-KRAS INHIBITOR COMPOUND” (ADLAI NORTYE BIOPHARMA CO., LTD., priority 2022, published 2026)

Assays:
[1] = test system: AsPC-1 (G12D); assay: In vitro cell proliferation inhibition test (CellTiter-Glo), AsPC-1; type: cell-based; details: KRAS (p.G12D), 72 h co-incubation
In short: (§1)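 IC50 was derived by four-parameter fitting of normalized CellTiter-Glo signals. These were measured after 72 h co-incubation with compound at 10 concentrations, 3-fold serial, final maximum 10 μM. Plating was 1000-5000 cells/well, adjusted to growth rate, with overnight attachment at 37 °C, 5% CO2.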

[2] = test system: SW480 (G12V); assay: In vitro cell proliferation inhibition test (CellTiter-Glo), SW480; type: cell-based; details: SW480 colon cell line, KRAS (p.G12V), 72 h co-incubation
In short: as §1

[3] = Homo sapiens, ASPC1, AsPC-1 pancreas cell line

IC50 [1, 3] [nM]	IC50 ([2]; Homo sapiens) [nM]	IC50 ([1]; AsPC-1 pancreas cell line) [nM]	IC50 [2] [nM]	SMILES
13	23			CCn1c(-c2cc(-c3ccc(CN4CC[C@@H](F)C4)cc3)cnc2[C@H](C)OC)c2c3cc(ccc31)-c1csc(n1)C[C@H](NC(=O)[C@H]1C[C@@H]1C)C(=O)N1CCC[C@H](N1)C(=O)OCC(C)(C)C2 (atropisomer, axis not shown) [Compound 6, (1S,2S)-N-((6^3S,4S,Z)-1^1-ethyl-1^2-(5-(4-(((R)-3-fluoropyrrolidin-1-yl)methyl)phenyl)-2-((S)-1-methoxyethyl)pyridin-3-yl)-10,10-dimethyl-5,7-dioxo-6^1,6^2,6^3,6^4,6^5,6^6-hexahydro-1^1H-8-oxa-2(4,2)-thiazola-1(5,3)-indola-6(1,3)-pyridazinacycloundecaphane-4-yl)-2-methylcyclopropane-1-carboxamide]
26	19			CCn1c(-c2cc(-c3cc([C@H]4CCCN4C)on3)cnc2[C@H](C)OC)c2c3cc(ccc31)-c1csc(n1)C[C@H](NC(=O)[C@H]1C[C@@H]1C)C(=O)N1CCC[C@H](N1)C(=O)OCC(C)(C)C2 (atropisomer, axis not shown) [Compound 24, (1S,2S)-N-((6^3S,4S,Z)-1^1-ethyl-1^2-(2-((S)-1-methoxyethyl)-5-(5-((R)-1-methylpyrrolidin-2-yl)isoxazol-3-yl)pyridin-3-yl)-10,10-dimethyl-5,7-dioxo-6^1,6^2,6^3,6^4,6^5,6^6-hexahydro-1^1H-8-oxa-2(4,2)-thiazola-1(5,3)-indola-6(1,3)-pyridazinacycloundecaphane-4-yl)-2-methylcyclopropane-1-carboxamide]
0.57	4.5			CCn1c(-c2cc(-c3cnn(CCN4CCN(C)CC4)c3)cnc2[C@H](C)OC)c2c3cc(ccc31)-c1csc(n1)C[C@H](NC(=O)[C@H]1[C@H](C)[C@@H]1C)C(=O)N1CCC[C@H](N1)C(=O)OCC(C)(C)C2 (atropisomer, axis not shown) [Compound 19, (1r,2R,3S)-N-((6^3S,4S,Z)-1^1-ethyl-1^2-(2-((S)-1-methoxyethyl)-5-(1-(2-(4-methylpiperazin-1-yl)ethyl)-1H-pyrazol-4-yl)pyridin-3-yl)-10,10-dimethyl-5,7-dioxo-6^1,6^2,6^3,6^4,6^5,6^6-hexahydro-1^1H-8-oxa-2(4,2)-thiazola-1(5,3)-indola-6(1,3)-pyridazinacycloundecaphane-4-yl)-2,3-dimethylcyclopropane-1-carboxamide]
18	0.5			CCn1c(-c2cc(-c3ccc4c(c3)CN(C)CC4)cnc2[C@H](C)OC)c2c3cc(ccc31)-c1csc(n1)C[C@H](NC(=O)[C@H]1C[C@@H]1C)C(=O)N1CCC[C@H](N1)C(=O)OCC(C)(C)C2 (atropisomer, axis not shown) [Compound 10, (1S,2S)-N-((6^3S,4S,Z)-1^1-ethyl-1^2-(2-((S)-1-methoxyethyl)-5-(2-methyl-1,2,3,4-tetrahydroisoquinolin-7-yl)pyridin-3-yl)-10,10-dimethyl-5,7-dioxo-6^1,6^2,6^3,6^4,6^5,6^6-hexahydro-1^1H-8-oxa-2(4,2)-thiazola-1(5,3)-indola-6(1,3)-pyridazinacycloundecaphane-4-yl)-2-methylcyclopropane-1-carboxamide]
0.86	2.1			CCn1c(-c2cc(-c3cc([C@H]4COCCN4C)on3)cnc2[C@H](C)OC)c2c3cc(ccc31)-c1csc(n1)C[C@H](NC(=O)[C@H]1[C@H](C)[C@@H]1C)C(=O)N1CCC[C@H](N1)C(=O)OCC(C)(C)C2 (atropisomer, axis not shown) [Compound 33, (1r,2R,3S)-N-((6^3S,4S,Z)-1^1-ethyl-1^2-(2-((S)-1-methoxyethyl)-5-(5-((R)-4-methylmorpholin-3-yl)isoxazol-3-yl)pyridin-3-yl)-10,10-dimethyl-5,7-dioxo-6^1,6^2,6^3,6^4,6^5,6^6-hexahydro-1^1H-8-oxa-2(4,2)-thiazola-1(5,3)-indola-6(1,3)-pyridazinacycloundecaphane-4-yl)-2,3-dimethylcyclopropane-1-carboxamide]
16	21			CCn1c(-c2cc(-c3cnc(N4CCOCC4)nc3)cnc2[C@H](C)OC)c2c3cc(ccc31)-c1csc(n1)C[C@H](NC(=O)[C@H]1C[C@@H]1C)C(=O)N1CCC[C@H](N1)C(=O)OCC(C)(C)C2 (atropisomer, axis not shown) [Compound 56, (1S,2S)-N-((6^3S,4S,Z)-1^1-ethyl-1^2-(2-((S)-1-methoxyethyl)-5-(2-morpholinopyrimidin-5-yl)pyridin-3-yl)-10,10-dimethyl-5,7-dioxo-6^1,6^2,6^3,6^4,6^5,6^6-hexahydro-1^1H-8-oxa-2(4,2)-thiazola-1(5,3)-indola-6(1,3)-pyridazinacycloundecaphane-4-yl)-2-methylcyclopropane-1-carboxamide]
		3420	> 10000	CCn1c(-c2cc(-c3cc([C@@H]4CCCN4C)on3)cnc2[C@H](C)OC)c2c3cc(ccc31)-c1csc(n1)C[C@H](NC(=O)[C@H]1C[C@@H]1C)C(=O)N1CCC[C@H](N1)C(=O)OCC(C)(C)C2 [Compound 25′, (1S,2S)-N-((6^3S,4S,Z)-1^1-ethyl-1^2-(2-((S)-1-methoxyethyl)-5-(5-((S)-1-methylpyrrolidin-2-yl)isoxazol-3-yl)pyridin-3-yl)-10,10-dimethyl-5,7-dioxo-6^1,6^2,6^3,6^4,6^5,6^6-hexahydro-1^1H-8-oxa-2(4,2)-thiazola-1(5,3)-indola-6(1,3)-pyridazinacycloundecaphane-4-yl)-2-methylcyclopropane-1-carboxamide]
2.2	5.7			CCn1c(-c2cc(-c3cnc(N4CCN(C)CC4)nc3)cnc2[C@H](C)OC)c2c3cc(ccc31)-c1csc(n1)C[C@H](NC(=O)[C@H]1C[C@@H]1C)C(=O)N1CCC[C@H](N1)C(=O)OCC(C)(C)C2 (atropisomer, axis not shown) [Compound 54, (1S,2S)-N-((6^3S,4S,Z)-1^1-ethyl-1^2-(2-((S)-1-methoxyethyl)-5-(2-(4-methylpiperazin-1-yl)pyrimidin-5-yl)pyridin-3-yl)-10,10-dimethyl-5,7-dioxo-6^1,6^2,6^3,6^4,6^5,6^6-hexahydro-1^1H-8-oxa-2(4,2)-thiazola-1(5,3)-indola-6(1,3)-pyridazinacycloundecaphane-4-yl)-2-methylcyclopropane-1-carboxamide]
5.6	4.6			CCn1c(-c2cc(-c3cnc(OC)nc3)cnc2[C@H](C)OC)c2c3cc(ccc31)-c1csc(n1)C[C@H](NC(=O)[C@H]1C[C@@H]1C)C(=O)N1CCC[C@H](N1)C(=O)OCC(C)(C)C2 (atropisomer, axis not shown) [Compound 57, (1S,2S)-N-((6^3S,4S,Z)-1^1-ethyl-1^2-(2-((S)-1-methoxyethyl)-5-(2-methoxypyrimidin-5-yl)pyridin-3-yl)-10,10-dimethyl-5,7-dioxo-6^1,6^2,6^3,6^4,6^5,6^6-hexahydro-1H-8-oxa-2(4,2)-thiazola-1(5,3)-indola-6(1,3)-pyridazinacycloundecaphane-4-yl)-2-methylcyclopropane-1-carboxamide]
2.1	3.2			CCn1c(-c2cc(-c3cc(CN4CCOCC4)ccn3)cnc2[C@H](C)OC)c2c3cc(ccc31)-c1csc(n1)C[C@H](NC(=O)[C@H]1C[C@@H]1C)C(=O)N1CCC[C@H](N1)C(=O)OCC(C)(C)C2 (atropisomer, axis not shown) [Compound 11, (1S,2S)-N-((6^3S,4S,Z)-1^1-ethyl-1^2-(6′-((S)-1-methoxyethyl)-4-(morpholinomethyl)-[2,3′-bipyridin]-5′-yl)-10,10-dimethyl-5,7-dioxo-6^1,6^2,6^3,6^4,6^5,6^6-hexahydro-1^1H-8-oxa-2(4,2)-thiazola-1(5,3)-indola-6(1,3)-pyridazinacycloundecaphane-4-yl)-2-methylcyclopropane-1-carboxamide]
3.2	10			CCn1c(-c2cc(-c3cc([C@@H]4CCN(C)C4)on3)cnc2[C@H](C)OC)c2c3cc(ccc31)-c1csc(n1)C[C@H](NC(=O)[C@H]1[C@H](C)[C@@H]1C)C(=O)N1CCC[C@H](N1)C(=O)OCC(C)(C)C2 (atropisomer, axis not shown) [Compound 29, (1r,2R,3S)-N-((6^3S,4S,Z)-1^1-ethyl-1^2-(2-((S)-1-methoxyethyl)-5-(5-((R)-1-methylpyrrolidin-3-yl)isoxazol-3-yl)pyridin-3-yl)-10,10-dimethyl-5,7-dioxo-6^1,6^2,6^3,6^4,6^5,6^6-hexahydro-1^1H-8-oxa-2(4,2)-thiazola-1(5,3)-indola-6(1,3)-pyridazinacycloundecaphane-4-yl)-2,3-dimethylcyclopropane-1-carboxamide]
2.5	2			CCn1c(-c2cc(-c3cccc(CN4CCOCC4)n3)cnc2[C@H](C)OC)c2c3cc(ccc31)-c1csc(n1)C[C@H](NC(=O)C1C[C@@H]1C)C(=O)N1CCC[C@H](N1)C(=O)OCC(C)(C)C2 (stereo partly drawn) [Compound 13, (1S,2S)-N-((6^3S,4S,Z)-1^1-ethyl-1^2-(6′-((S)-1-methoxyethyl)-6-(morpholinomethyl)-[2,3′-bipyridin]-5′-yl)-10,10-dimethyl-5,7-dioxo-6^1,6^2,6^3,6^4,6^5,6^6-hexahydro-1^1H-8-oxa-2(4,2)-thiazola-1(5,3)-indola-6(1,3)-pyridazinacycloundecaphane-4-yl)-2-methylcyclopropane-1-carboxamide]
		> 10000	161	CCn1c(-c2cc(-c3cc(CN4CCOCC4)on3)cnc2C(C)OC)c2c3cc(ccc31)-c1csc(n1)CC(NC(=O)C1CC1C)C(=O)N1CCCC(N1)C(=O)OCC(C)(C)C2 [Compound 22′, (1S,2S)-N-((6^3S,4S,Z)-1^1-ethyl-1^2-(2-((S)-1-methoxyethyl)-5-(5-(morpholinomethyl)isoxazol-3-yl)pyridin-3-yl)-10,10-dimethyl-5,7-dioxo-6^1,6^2,6^3,6^4,6^5,6^6-hexahydro-1^1H-8-oxa-2(4,2)-thiazola-1(5,3)-indola-6(1,3)-pyridazinacycloundecaphane-4-yl)-2-methylcyclopropane-1-carboxamide]
